These results are taken from patent US20080234304A1, “N3-Pyridyl-Thiamine And Its Use In Cancer Treatments” (AVEO PHARMACEUTICALS, INC., priority 2004, published 2008).

Data set [1] relates to K562. Briefly: inhibition of proliferation of K562 cells. In kind it is cell-based. The conditions noted are these: K562 CML line. Here is the method: The ability of N3PT to inhibit proliferation of these cell lines was then tested. LAMA84 was the most sensitive to N3PT, displaying an IC50 of 0.3 μM. The other cell lines, HCT116 and K562, were less sensitive, displaying an IC50 of approximately 2 μM in both cases. LAMA84 also had the highest TK activity (per cell) among these three cancer lines.

For data set [2], the target named is T1, transketolase (Homo sapiens, UniProt P29401).
T1 construct: Cells were lysed by vortexing and cell extracts assayed for transketolase activity; endogenous in cells; other cell lines not specified
T1 sequence (P29401 1-623): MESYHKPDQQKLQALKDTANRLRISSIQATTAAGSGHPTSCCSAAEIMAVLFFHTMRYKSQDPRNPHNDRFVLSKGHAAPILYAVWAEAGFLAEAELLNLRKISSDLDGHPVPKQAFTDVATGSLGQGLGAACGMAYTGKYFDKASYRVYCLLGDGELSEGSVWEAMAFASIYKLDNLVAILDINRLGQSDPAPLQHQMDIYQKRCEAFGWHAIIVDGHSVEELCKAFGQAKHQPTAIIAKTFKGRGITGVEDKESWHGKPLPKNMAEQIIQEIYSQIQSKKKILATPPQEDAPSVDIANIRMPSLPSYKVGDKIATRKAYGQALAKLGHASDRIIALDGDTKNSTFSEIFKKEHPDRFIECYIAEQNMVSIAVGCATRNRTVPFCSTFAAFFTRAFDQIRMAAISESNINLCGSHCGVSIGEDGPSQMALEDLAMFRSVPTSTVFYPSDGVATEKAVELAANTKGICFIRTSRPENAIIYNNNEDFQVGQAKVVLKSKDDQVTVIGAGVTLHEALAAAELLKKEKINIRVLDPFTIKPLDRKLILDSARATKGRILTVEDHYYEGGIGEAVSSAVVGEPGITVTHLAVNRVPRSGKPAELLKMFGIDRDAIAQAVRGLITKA
Description: transketolase activity in cell based assay (lysates of N3PT-treated cells, GAPDH-coupled NADH readout). Here is the method: Human carcinoma cell lines, such as, but not restricted to, HCT116, HT1080, DLD-1, Rv22, MIA PA CA-2, HCT-15, and murine cell lines, CT26, 4T1 (all cell lines described are available from the ATCC), were cultured in standard conditions (37 C, 5% CO2) in DMEM media (10% FBS, 1% Penicillin-Streptomycin) and harvested at 60-80% confluency by trypsinization. Approximately 2 million cells were collected in an Eppendorf tube and washed 2 times (2×) with PBS by centrifugation and stored at −20° C. as cell pellets. Ice-cold lysis buffer (1 ml) (20 mM HEPES, pH 7.5, 1 mM EDTA, 0.2 g/l Triton X-100 and 0.2 g/L sodium deoxycholate, supplemented with 1 mM DTT and 1 mM PMSF just before use) was added to each cell pellet. Cells were lysed by vortexing and cell extracts assayed for transketolase activity at pH 7.5, by coupling a subsequent glyceraldehyde-3-phosphate dehydrogenase (GAPDH) reaction and measuring conversion of NAD to NADH (FIG. 1).
The assay was carried out as follows. […] of […] assay buffer containing final concentrations of 50 mM HEPES, 40 mM KCl, 2.5 mM MgCl2, 5 mM NaArsenate, 1 mM NAD, 2 unit/ml glyceraldehydes-3-phosphate dehydrogenase (GAPDH) was added to 80 μl of lysate. Reaction kinetics were monitored on a fluorescent plate reader to allow any possible background activity via GAPDH to burn out. Then 5 ul of substrate mix containing final concentrations of 0.5 mM ribose-5-phosphate and 0.5 mM xylulose-5-phosphate was added to initiate the reaction. The reaction kinetics were monitored using a fluorescent plate reader, and the slope of the initial linear range was recorded as the velocity of the reaction (FU/min).
TK, kGDH and PDH enzymes all utilize thiamine pyrophosphate (TPP) as a co-factor for their catalysis. Conventional cell culture media (e.g., DMEM, RPMI) have high levels of thiamine (12 μM and 3 μM, respectively). […]
Log-phase growing cells were trypsinized and resuspended in TDM. […] TK activities could be measured from ≧5000 cells in most cell lines tested. […]
Enzymatic inhibition was expressed as percent of control cells that were not treated with compounds. […]

Data set [3] in a line: brain penetration after a single dose in mice. In kind it is in vivo, mouse. Here is the method:
To assess the ability of N3PT to inhibit transketolase in vivo, a single dose of N3PT was administered to Balb C nude mice (ip, 100 mg/kg), and blood and tissue samples were collected over time and enzymatic activities determined. Blood samples were taken (40 μl whole blood) serially or from sacrificed animals at the end of a study. Tissues, including tumor, brain, heart, kidney, liver, lung, spleen, were taken and flash frozen in liquid nitrogen or on dry ice and stored at −80° C. until assay. Blood was diluted into lysis buffer and dissolved. Tissues were suspended in lysis buffer and homogenized with PowerGen 125 (Fisher Scientific) while being submerged in an ice-water bath.

Data set [4] concerns the target T2, glucose-6-phosphate dehydrogenase (G6PDH) (Mus musculus, UniProt Q00612).
T2 construct: (G6PDH) in blood, spleen and brain after a single dose of N3PT in mice; from tissue; host or cells: blood, spleen and brain of Balb C nude mice
Briefly: G6PDH activity in blood and tissues of N3PT-treated mice. In kind it is in vivo.

“Also recorded” adds a separate entry of the source. Where two headings read alike, the source gives them in different places.

Usually IC50 stands for the concentration needed to halve the response being measured.

T2 sequence (Q00612 whole entry): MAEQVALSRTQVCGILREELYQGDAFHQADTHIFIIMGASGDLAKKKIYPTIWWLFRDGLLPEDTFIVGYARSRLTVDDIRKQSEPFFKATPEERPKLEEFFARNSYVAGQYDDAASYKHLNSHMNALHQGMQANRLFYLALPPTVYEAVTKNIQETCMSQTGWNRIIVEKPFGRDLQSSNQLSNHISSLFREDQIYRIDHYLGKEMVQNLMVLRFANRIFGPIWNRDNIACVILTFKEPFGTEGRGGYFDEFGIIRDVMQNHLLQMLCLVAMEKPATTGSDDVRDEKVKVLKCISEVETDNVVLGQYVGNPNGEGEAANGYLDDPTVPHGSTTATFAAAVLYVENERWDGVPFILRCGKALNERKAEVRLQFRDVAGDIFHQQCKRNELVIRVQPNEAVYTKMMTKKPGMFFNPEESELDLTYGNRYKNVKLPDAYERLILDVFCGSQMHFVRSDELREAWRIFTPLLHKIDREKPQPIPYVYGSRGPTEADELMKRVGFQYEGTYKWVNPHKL

On to `Cc1ccc(C[n+]2csc(CCO)c2C)c(N)n1` [N3PT, 3-[(2-amino-6-methyl-3-pyridinyl)methyl]-5-(2-hydroxyethyl)-4-methyl thiazolium], for which the IC50 in data set [1] is ~2000 nM; in data set [2] (extracts from cells incubated with increasing concentrations of N3PT, read-out: IC50 transketolase (selectivity comparison, FIG. 9)) it was 7 nM; in data set [2] (production of glyceraldehyde-3-phosphate by transketolase, read-out: IC50 transketolase in cell assays) it was 27 nM. The “duration of inhibition of cellular transketolase activity” value in data set [2] (cells treated two days, washed out, TK monitored days 3-7) is “long lasting; also recorded: persists for several days”. For the same compound, the brain penetration entry in data set [3] is “little or no significant brain penetration”. In addition, the “G6PDH activity after repeated treatment” value in data set [4] (200 mg/kg/day, % of vehicle average) was “no effect on G6PDH activity”. Further, the “G6PDH activity after single dose” value in data set [4] (single dose 100 mg/kg i.p., blood, spleen, brain, 0-120 hr, 100 mg/kg) is reported as “no effect on G6PDH in vivo; also recorded: little or no effect”.
